According to patent US8735414B2 (priority 2009, dated 2014):

Legend:
[1] = tested on: bicistronic HCV replicon (replicon RNA, GenBank Accession No. AJ242654); test: HCV Replicon Assay; assay type: cell-based; conditions: Hepatitis C virus, 72 h, read-out: Replicon IC50

With `C[C@H](NS(=O)(=O)c1cnc(-c2c(C#N)c3ccc(C4CC4)cc3n2C2CCCC2)nc1)C1CC1` [compound 254, 2-(3-cyano-1-cyclopentyl-6-cyclopropyl-1H-indol-2-yl)-N-[(1S)-1-cyclopropylethyl]pyrimidine-5-sulfonamide] the IC50 [1] was 500 to 2000 nM and the melting point was 185 to 189 °C.
Work on `C[C@H](NS(=O)(=O)c1cnc(-c2c(C#N)c3ccc(C4CC4)cc3n2C2CCC2)nc1)C1CC1` [compound 131, 2-(3-cyano-1-cyclobutyl-6-cyclopropyl-1H-indol-2-yl)-N-[(1S)-1-cyclopropylethyl]pyrimidine-5-sulfonamide] yielded an IC50 [1] of less than 500 nM and a melting point of 165 to 167 °C.
Compound `CNC(=O)c1c(-c2ccc(S(=O)(=O)NC(C)(C)C)cn2)n(C2CCC2)c2cc(C)c(F)cc12` [compound 795, 2-[5-(tert-butylsulfamoyl)pyridin-2-yl]-1-cyclobutyl-5-fluoro-N,6-dimethyl-1H-indole-3-carboxamide] has an IC50 [1] of less than 500 nM and a melting point of 215 to 218 °C.
Work on `CCc1cc2c(cc1F)c(C#N)c(-c1ccc(S(=O)(=O)NC(C)(C)C)cn1)n2-c1ccccn1` [compound 882, N-tert-butyl-6-[3-cyano-6-ethyl-5-fluoro-1-(pyridin-2-yl)-1H-indol-2-yl]pyridine-3-sulfonamide] yielded an IC50 [1] of less than 500 nM and a melting point of 200 to 205 °C.
`COc1ccc2c(C#N)c(-c3ccc(S(=O)(=O)N[C@@H](C)C4CC4)cn3)n(C3CCCC3)c2c1` [compound 432, 6-(3-cyano-1-cyclopentyl-6-methoxy-1H-indol-2-yl)-N-[(1S)-1-cyclopropylethyl]pyridine-3-sulfonamide] gave an IC50 [1] of less than 500 nM and a melting point of 199 to 209 °C.
With `CCc1cc2c(cc1F)c(S(C)(=O)=O)c(-c1ccc(S(=O)(=O)NC(C)(C)C)cn1)n2-c1ncccn1` [compound 869, N-tert-butyl-6-(6-ethyl-5-fluoro-3-(methylsulfonyl)-1-(pyrimidin-2-yl)-1H-indol-2-yl)pyridine-3-sulfonamide] the IC50 [1] was 500 to 2000 nM and the melting point was 244 to 248 °C.
Work on `Cc1cc2c(cc1O)c(C(N)=O)c(-c1ccc(S(=O)(=O)N[C@@H](C)C(F)(F)F)cn1)n2C1CCC1` [compound 833, 1-cyclobutyl-5-hydroxy-6-methyl-2-(5-{[(2S)-1,1,1-trifluoropropan-2-yl]sulfamoyl}pyridin-2-yl)-1H-indole-3-carboxamide] yielded an IC50 [1] of 500 to 2000 nM and a melting point of 256 to 258 °C.
For `CC(C)n1c(-c2ccc(S(=O)(=O)N[C@@H](C)C3CC3)cn2)c(C#N)c2ccc(OC(F)(F)F)cc21` [compound 308, 6-[3-cyano-1-(propan-2-yl)-6-(trifluoromethoxy)-1H-indol-2-yl]-N-[(1S)-1-cyclopropylethyl]pyridine-3-sulfonamide], the IC50 [1] was 500 to 2000 nM and the melting point was 144 to 145 °C.
With `C[C@H](NS(=O)(=O)c1ccc(-c2c(C(N)=O)c3c(F)cc(OC(F)F)cc3n2C2CCC2)nc1)C(F)(F)F` [compound 825, 1-cyclobutyl-6-(difluoromethoxy)-4-fluoro-2-(5-{[(2S)-1,1,1-trifluoropropan-2-yl]sulfamoyl}pyridin-2-yl)-1H-indole-3-carboxamide] the IC50 [1] was less than 500 nM and the melting point was 254 to 256 °C.
In the case of `Cc1ccc2c(c1)c(C#N)c(-c1ccc(S(=O)(=O)N[C@H](C)C(F)(F)F)cn1)n2C1CCCCC1` [compound 487, 6-(3-cyano-1-cyclohexyl-5-methyl-1H-indol-2-yl)-N-[(2R)-1,1,1-trifluoropropan-2-yl]pyridine-3-sulfonamide], the IC50 [1] is reported as less than 500 nM and the melting point is reported as 180 to 189 °C.
With `COc1cc2c(cc1F)c(C#N)c(-c1ccc(S(=O)(=O)NC(CF)CF)cn1)n2C1CCC1` [compound 102, 6-(3-cyano-1-cyclobutyl-5-fluoro-6-methoxy-1H-indol-2-yl)-N-(1,3-difluoropropan-2-yl)pyridine-3-sulfonamide] the IC50 [1] was less than 500 nM and the melting point was 217 to 219 °C.
Compound `C[C@H](NS(=O)(=O)c1ccc(-c2c(C#N)c3cc(F)c(O)cc3n2C2CCCC2)nc1)C(F)(F)F` [compound 576, 6-(3-cyano-1-cyclopentyl-5-fluoro-6-hydroxy-1H-indol-2-yl)-N-[(2S)-1,1,1-trifluoropropan-2-yl]pyridine-3-sulfonamide] has an IC50 [1] of less than 500 nM and a melting point of 214 to 216 °C.
For `COc1cc2c(C(N)=O)c(-c3ccc(S(=O)(=O)N[C@H](C)C(F)(F)F)cn3)n(C3CCCC3)c2cc1C` [compound 834, 1-cyclopentyl-5-methoxy-6-methyl-2-(5-{[(2R)-1,1,1-trifluoropropan-2-yl]sulfamoyl}pyridin-2-yl)-1H-indole-3-carboxamide], the IC50 [1] was 2000 to 5000 nM and the melting point was 273 to 275 °C.
With `COc1ccc2c(c1)c(C#N)c(-c1ccc(S(=O)(=O)N[C@H](C)C(F)(F)F)cn1)n2C1CCC1` [compound 500, 6-(3-cyano-1-cyclobutyl-5-methoxy-1H-indol-2-yl)-N-[(2R)-1,1,1-trifluoropropan-2-yl]pyridine-3-sulfonamide] the IC50 [1] was less than 500 nM and the melting point was 181 to 186 °C.
With `Cc1cc2c(C#N)c(-c3ccc(S(=O)(=O)NC(CF)CF)cn3)n(C3CCC3)c2cc1F` [compound 493, 6-(3-cyano-1-cyclobutyl-6-fluoro-5-methyl-1H-indol-2-yl)-N-(1,3-difluoropropan-2-yl)pyridine-3-sulfonamide] the IC50 [1] was less than 500 nM and the melting point was 209 to 213 °C.
`Cc1ccc2c(C#N)c(-c3ccc(S(=O)(=O)N[C@H](C)C(F)(F)F)cn3)n(CC3CC3)c2c1` [compound 197, 6-[3-cyano-1-(cyclopropylmethyl)-6-methyl-1H-indol-2-yl]-N-[(2R)-1,1,1-trifluoropropan-2-yl]pyridine-3-sulfonamide] gave an IC50 [1] of less than 500 nM and a melting point of 165 to 169 °C.
`C[C@H](NS(=O)(=O)c1ccc(-c2c(C#N)c3cc(C#N)ccc3n2C2CCCC2)nc1)C(F)(F)F` [compound 346, 6-(3,5-dicyano-1-cyclopentyl-1H-indol-2-yl)-N-[(2S)-1,1,1-trifluoropropan-2-yl]pyridine-3-sulfonamide] showed an IC50 [1] of less than 500 nM and a melting point of 225 to 228 °C.
Work on `C[C@H](NS(=O)(=O)c1cnc(-c2c(C#N)c3ccc(OC(F)F)cc3n2C2CCC2)nc1)C1CC1` [compound 130, 2-[3-cyano-1-cyclobutyl-6-(difluoromethoxy)-1H-indol-2-yl]-N-[(1S)-1-cyclopropylethyl]pyrimidine-5-sulfonamide] yielded an IC50 [1] of less than 500 nM and a melting point of 172 to 174 °C.
Work on `C[C@@H](NS(=O)(=O)c1ccc(-c2c(C#N)c3ccc(OC(F)(F)F)cc3n2C2CCCCC2)nc1)C(F)(F)F` [compound 304, 6-[3-cyano-1-cyclohexyl-6-(trifluoromethoxy)-1H-indol-2-yl]-N-[(2R)-1,1,1-trifluoropropan-2-yl]pyridine-3-sulfonamide] yielded an IC50 [1] of less than 500 nM and a melting point of 181 to 183 °C.
`Cc1cc2c(cc1O)c(C#N)c(-c1ccc(S(=O)(=O)N[C@@H](C)C(F)(F)F)cn1)n2C1CCCC1` [compound 691, 6-(3-cyano-1-cyclopentyl-5-hydroxy-6-methyl-1H-indol-2-yl)-N-[(2S)-1,1,1-trifluoropropan-2-yl]pyridine-3-sulfonamide] showed an IC50 [1] of less than 500 nM and a melting point of 232 to 233 °C.
With `Cc1ccc2c(C#N)c(-c3ncc(S(=O)(=O)NC(CF)CF)cn3)n(CC3CC3)c2c1` [compound 133, 2-[3-cyano-1-(cyclopropylmethyl)-6-methyl-1H-indol-2-yl]-N-(1,3-difluoropropan-2-yl)pyrimidine-5-sulfonamide] the IC50 [1] was less than 500 nM and the melting point was 261 to 262 °C.
`C[C@H](NS(=O)(=O)c1cnc(-c2c(C#N)c3ccc(OC(F)F)cc3n2C2CCCC2)nc1)C1CC1` [compound 209, 2-[3-cyano-1-cyclopentyl-6-(difluoromethoxy)-1H-indol-2-yl]-N-[(1S)-1-cyclopropylethyl]pyrimidine-5-sulfonamide] showed an IC50 [1] of less than 500 nM and a melting point of 183 to 185 °C.
For `CC(=O)c1ccc(-n2c(-c3ccc(S(=O)(=O)N[C@@H](C)C(F)(F)F)cn3)c(C#N)c3cc(F)c(C)cc32)s1` [compound 1035, 6-[1-(5-acetylthiophen-2-yl)-3-cyano-5-fluoro-6-methyl-1H-indol-2-yl]-N-[(2S)-1,1,1-trifluoropropan-2-yl]pyridine-3-sulfonamide], the IC50 [1] was 500 to 2000 nM and the melting point was 235.6 to 238.7 °C.
`Cc1cc2c(C#N)c(-c3ccc(S(=O)(=O)NC(CF)CF)cn3)n(C3CCC3)c2cc1Cl` [compound 505, 6-(6-chloro-3-cyano-1-cyclobutyl-5-methyl-1H-indol-2-yl)-N-(1,3-difluoropropan-2-yl)pyridine-3-sulfonamide] gave an IC50 [1] of less than 500 nM and a melting point of 195 to 196 °C.
`Cc1cc2c(cc1F)c(C#N)c(-c1ccc(S(=O)(=O)N[C@@H](C)C(F)(F)F)cn1)n2-c1cccc(Cl)n1` [compound 962, 6-[1-(6-chloropyridin-2-yl)-3-cyano-5-fluoro-6-methyl-1H-indol-2-yl]-N-[(2S)-1,1,1-trifluoropropan-2-yl]pyridine-3-sulfonamide] showed an IC50 [1] of less than 500 nM and a melting point of 253 to 257 °C.
`Cc1ccc2c(c1)c(C#N)c(-c1ccc(S(=O)(=O)N[C@@H](C)C3CC3)cn1)n2CC1CC1` [compound 525, 6-[3-cyano-1-(cyclopropylmethyl)-5-methyl-1H-indol-2-yl]-N-[(1S)-1-cyclopropylethyl]pyridine-3-sulfonamide] gave an IC50 [1] of 500 to 2000 nM and a melting point of 181 to 185 °C.
`N#Cc1c(-c2ncc(S(=O)(=O)NC(CF)CF)cn2)n(C2CCCCC2)c2ccc(F)cc12` [compound 527, 2-(3-cyano-1-cyclohexyl-5-fluoro-1H-indol-2-yl)-N-(1,3-difluoropropan-2-yl)pyrimidine-5-sulfonamide] showed an IC50 [1] of less than 500 nM and a melting point of 250 to 253 °C.
With `N#Cc1c(-c2ccc(S(=O)(=O)NC(CF)CF)cn2)n(-c2ccccn2)c2cc(Cl)ccc12` [compound 438, 6-[6-chloro-3-cyano-1-(pyridin-2-yl)-1H-indol-2-yl]-N-(1,3-difluoropropan-2-yl)pyridine-3-sulfonamide] the IC50 [1] was less than 500 nM and the melting point was 219 to 221 °C.
